According to patent publication US6737383B1, “Herbicidal oxadiazolidines” (priority 1999, dated 2004):

Experiments:
velvetleaf = assay: Test B pre/postemergence velvetleaf; type: in vivo, Abutilon theophrasti
Procedure, shortened: (§1)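 Test chemicals in a non-phytotoxic solvent mixture with surfactant were sprayed preemergence onto planted seeds and postemergence onto plants 2 to 18 cm tall (1- to 4-leaf stage). After twelve to sixteen days in a greenhouse, injury was visually rated against untreated controls from 0 (no effect) to 10 (complete control).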

bamyardgrass = assay: Test B flood test barnyardgrass; type: in vivo, Echinochloa crus-galli
Procedure, shortened: (§2)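 Flood test on plants grown to the 2-leaf stage; treated plants kept in greenhouse twelve to sixteen days, then visually rated against controls on a 0 (no effect) to 10 (complete control) scale.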

cocklebur = assay: Test B pre/postemergence cocklebur; type: in vivo, Xanthium strumarium
Procedure, shortened: as §1

soybean = assay: Test B pre/postemergence soybean; type: in vivo, Glycine max
Procedure, shortened: as §1

blackgrass = assay: Test B pre/postemergence blackgrass; type: in vivo, Alopecurus myosuroides
Procedure, shortened: as §1

giant foxtail = assay: Test B pre/postemergence giant foxtail; type: in vivo, Setaria faberii
Procedure, shortened: as §1

wild oat = assay: Test B pre/postemergence wild oat; type: in vivo, Avena fatua
Procedure, shortened: as §1

crabgrass = assay: Test B pre/postemergence crabgrass; type: in vivo, Digitaria sanguinalis
Procedure, shortened: as §1

smallflower flatsedge = assay: Test B flood test smallflower flatsedge; type: in vivo, Cyperus difformis
Procedure, shortened: as §2

purple nutsedge = assay: Test B pre/postemergence purple nutsedge; type: in vivo, Cyperus rotundus; settings: Postemergence; for Nutsedge plant response rating: 10 is complete control
Procedure, shortened: as §1

sugar beet = assay: Test B pre/postemergence sugar beet; type: in vivo, Beta vulgaris
Procedure, shortened: as §1

bedstraw = assay: Test B pre/postemergence bedstraw; type: in vivo, Galium aparine
Procedure, shortened: as §1

rice = assay: Test B flood test rice; type: in vivo, Oryza sativa
Procedure, shortened: as §2

surinam grass = assay: Test B pre/postemergence surinam grass; type: in vivo, Brachiaria decumbens
Procedure, shortened: as §1

corn = assay: Test B pre/postemergence corn; type: in vivo, Zea mays
Procedure, shortened: as §1

pigweed = assay: Test B pre/postemergence pigweed; type: in vivo, Amaranthus retroflexus
Procedure, shortened: as §1

[1] = Postemergence, Rate 62 g/ha, scale of 0 to 10, 0 is no effect, 10 is complete control
[2] = Postemergence, Rate 500 g/ha, scale of 0 to 10 where 0 is no effect and 10 is complete control
[3] = Preemergence, Rate 62 g/ha, scale 0 to 10 (0 no effect, 10 complete control)
[4] = Preemergence, Rate 125 g/ha, scale 0 to 10, 0 is no effect, 10 is complete control
[5] = Preemergence, Rate 500 g/ha, scale of 0 to 10 where 0 is no effect and 10 is complete control
[6] = Rate 250 g/ha, Postemergence, scale of 0 to 10 where 0 is no effect and 10 is complete control
[7] = Rate 62 g/ha, flood test species, Pre-emergence, visual evaluation after twelve to sixteen days
[8] = Rate 125 g/ha, under heading Pre-emergence, flood test species, visual evaluation after twelve to sixteen days
[9] = Rate 250 g/ha, Pre-emergence (flood test species), scale 0 to 10, 0 is no effect, 10 is complete control
[10] = Rate 500 g/ha, Pre-emergence section of Table B, 0 to 10 scale (0 no effect, 10 complete control)
[11] = Postemergence, Rate 125 g/ha, scale 0 to 10, 0 is no effect, 10 is complete control

**Q.** What does the source list for `CC(C)N(C(=O)n1oc(=O)n(CCC2OCCCO2)c1=O)c1ccccc1` [Compound 561]?
**A.** Velvetleaf plant response rating (velvetleaf; [1]): 0; Plant response rating, Velvetleaf (velvetleaf; [2]): 0; Velvetleaf plant response rating (velvetleaf; [3]): 0; Velvetleaf plant response rating (velvetleaf; [4]): 0; Velvetleaf plant response rating (0 to 10 scale) (velvetleaf; Preemergence, Rate 250 g/ha): 0; Velvetleaf plant response rating (velvetleaf; [5]): 2; Plant response rating, Velvetleaf (velvetleaf; [6]): 0; Plant response rating, Barnyardgrass (0 to 10 scale, 0 is no effect, 10 is complete control) (bamyardgrass; [7]): 0; Barnyardgrass plant response rating (0 to 10 scale, 0 is no effect, 10 is complete control) (bamyardgrass; [8]): 0; Barnyardgrass plant response rating (bamyardgrass; [9]): 0; Barnyardgrass plant response rating (bamyardgrass; [10]): 0; Cocklebur plant response rating (cocklebur; [1]): 0; Cocklebur plant response rating (cocklebur; [11]): 0; Plant response rating, Cocklebur (cocklebur; [2]): 0; Cocklebur plant response rating (cocklebur; [3]): 0; Cocklebur plant response rating (cocklebur; [4]): 0; Cocklebur plant response rating (0 to 10 scale) (cocklebur; Preemergence, Rate 250 g/ha): 0; Cocklebur plant response rating (cocklebur; [5]): 0; Plant response rating, Cocklebur (cocklebur; [6]): 0; Soybean plant response rating (soybean; [1]): 2; Plant response rating, Soybean (soybean; [2]): 5; Soybean plant response rating (soybean; [3]): 0; Soybean plant response rating (soybean; [4]): 0; Soybean plant response rating (0 to 10 scale) (soybean; Preemergence, Rate 250 g/ha): 0; Soybean plant response rating (soybean; [5]): 2; Plant response rating, Soybean (soybean; [6]): 3; Blackgrass plant response rating (blackgrass; [1]): 2; Blackgrass plant response rating (blackgrass; [11]): 5; Plant response rating, Blackgrass (blackgrass; [2]): 6; Blackgrass plant response rating (blackgrass; [3]): 5; Blackgrass plant response rating (blackgrass; [4]): 7; Blackgrass plant response rating (0 to 10 scale) (blackgrass; Preemergence, Rate 250 g/ha): 9; Blackgrass plant response rating (blackgrass; [5]): 9; Plant response rating, Blackgrass (blackgrass; [6]): 6; Giant foxtail plant response rating (giant foxtail; [1]): 2; Giant foxtail plant response rating (giant foxtail; [11]): 4; Plant response rating, Giant foxtail (giant foxtail; [2]): 8; Giant foxtail plant response rating (giant foxtail; [3]): 0; Giant foxtail plant response rating (giant foxtail; [4]): 6; Giant foxtail plant response rating (0 to 10 scale) (giant foxtail; Preemergence, Rate 250 g/ha): 6; Giant foxtail plant response rating (giant foxtail; [5]): 7; Plant response rating, Giant foxtail (giant foxtail; [6]): 7; Wild oats plant response rating (wild oat; [1]): 0; Plant response rating, Wild oats (wild oat; [2]): 2; Wild oats plant response rating (wild oat; [3]): 0; Wild oats plant response rating (wild oat; [4]): 2; Wild oats plant response rating (0 to 10 scale) (wild oat; Preemergence, Rate 250 g/ha): 5; Wild oats plant response rating (wild oat; [5]): 9; Plant response rating, Wild oats (wild oat; [6]): 2; Crabgrass plant response rating (crabgrass; [1]): 2; Crabgrass plant response rating (crabgrass; [11]): 3; Plant response rating, Crabgrass (crabgrass; [2]): 9; Crabgrass plant response rating (crabgrass; [3]): 9; Crabgrass plant response rating (crabgrass; [4]): 9; Crabgrass plant response rating (0 to 10 scale) (crabgrass; Preemergence, Rate 250 g/ha): 9; Crabgrass plant response rating (crabgrass; [5]): 9; Plant response rating, Crabgrass (crabgrass; [6]): 4; Plant response rating, S. Flatsedge (0 to 10 scale, 0 is no effect, 10 is complete control) (smallflower flatsedge; [7]): 0; S. Flatsedge plant response rating (0 to 10 scale, 0 is no effect, 10 is complete control) (smallflower flatsedge; [8]): 0; S. Flatsedge plant response rating (smallflower flatsedge; [9]): 0; S. Flatsedge plant response rating (smallflower flatsedge; [10]): 0; Nutsedge plant response rating (purple nutsedge; Rate 62 g/ha, scale of 0 to 10, 0 is no effect): 0; Nutsedge plant response rating (purple nutsedge; Rate 125 g/ha, scale 0 to 10, 0 is no effect): 2; Plant response rating, Nutsedge (purple nutsedge; Rate 500 g/ha, scale of 0 to 10 where 0 is no effect and 10 is complete control): 4; Sugarbeets plant response rating (sugar beet; [1]): 0; Plant response rating, Sugarbeets (sugar beet; [2]): 4; Sugarbeets plant response rating (sugar beet; [3]): 0; Sugarbeets plant response rating (sugar beet; [4]): 0; Sugarbeets plant response rating (0 to 10 scale) (sugar beet; Preemergence, Rate 250 g/ha): 2; Sugarbeets plant response rating (sugar beet; [5]): 8; Bedstraw plant response rating (bedstraw; [1]): 0; Plant response rating, Bedstraw (bedstraw; [2]): 7; Bedstraw plant response rating (bedstraw; [3]): 0; Bedstraw plant response rating (bedstraw; [4]): 0; Bedstraw plant response rating (0 to 10 scale) (bedstraw; Preemergence, Rate 250 g/ha): 2; Bedstraw plant response rating (bedstraw; [5]): 8; Plant response rating, Rice (0 to 10 scale, 0 is no effect, 10 is complete control) (rice; [7]): 0; Rice plant response rating (0 to 10 scale, 0 is no effect, 10 is complete control) (rice; [8]): 0; Rice plant response rating (rice; [9]): 0; Rice plant response rating (rice; [10]): 0; B. signalgrass plant response rating (surinam grass; [1]): 0; B. signalgrass plant response rating (surinam grass; [11]): 0; Plant response rating, B. signalgrass (surinam grass; [2]): 8; B. signalgrass plant response rating (surinam grass; [3]): 4; B. signalgrass plant response rating (surinam grass; [4]): 4; B. signalgrass plant response rating (0 to 10 scale, 0 is no effect, 10 is complete control) (surinam grass; Preemergence, Rate 250 g/ha): 8; B. signalgrass plant response rating (surinam grass; [5]): 9; Plant response rating, B. signalgrass (surinam grass; [6]): 6; Corn plant response rating (corn; [1]): 0; Corn plant response rating (corn; [11]): 0; Plant response rating, Corn (corn; [2]): 3; Corn plant response rating (corn; [3]): 0; Corn plant response rating (corn; [4]): 0; Corn plant response rating (0 to 10 scale) (corn; Preemergence, Rate 250 g/ha): 2; Corn plant response rating (corn; [5]): 5; Plant response rating, Corn (corn; [6]): 0; Redroot pigweed plant response rating (pigweed; [1]): 0; Plant response rating, Redroot pigweed (pigweed; [2]): 7; Redroot pigweed plant response rating (pigweed; [3]): 3; Redroot pigweed plant response rating (pigweed; [4]): 5; Redroot pigweed plant response rating (0 to 10 scale) (pigweed; Preemergence, Rate 250 g/ha): 9; Redroot pigweed plant response rating (pigweed; [5]): 9; Plant response rating, Redroot pigweed (pigweed; [6]): 0
